According to patent publication US5916881A, “High trehalose content syrup” (Kabushiki Kaisha Hayashibara Seibutsu Kagaku Kenkyujo, priority 1996, dated 1999):
Values after ≈ are worked out from the molar mass of the structure shown. “Also recorded” adds a separate entry of the source. Where two headings read alike, the source gives them in different places.

What was measured:
Type in all cases: physicochemical
[1] = Influence of ambient temperature on the water solubility of trehalose (Experiment 1); conditions: for solubility thermodynamic: water, 5 °C, saturated solution
Protocol: The water solubility of trehalose at ambient temperature was studied by placing in a glass beaker 10 parts by weight of water and 20 parts by weight of crystalline trehalose hydrate, allowing the solution to stand at 5, 10, 15, 20, 25, 30 or 40° C. while stirring, sampling the solution, filtering the sample, and measuring the trehalose content in the filtrate to determine the solubility of trehalose in 100 g water at each temperature, i.e., the amount (g) of trehalose, d.s.b., that dissolves in 100 g water to give a saturated solution at each temperature.

[2] = Trehalose crystallization inhibitory effect of coexisting saccharides in a trehalose syrup over the water solubility (Experiment 2); conditions: trehalose dissolved in an amount over the water solubility; summary of Table 2
Protocol: Trehalose was dissolved by heating in water in an amount of 1.5-times the water solubility at 10° C., and the trehalose solution was allowed to stand at a relatively-cold place for checking the trehalose crystallization inhibitory effect by saccharides. […] With this relationship, testing solutions were prepared by dissolving by heating in 100 parts by weight of water in a respective glass beaker 83 parts by weight of trehalose, and a saccharide in an amount of 10% to the trehalose, i.e., 8.3 parts by weight of the saccharide selected from the group consisting of glucose, maltose, isomaltose, lactose, maltotriose, panose, maltotetraose, sorbitol, maltitol, maltotriitol, sucrose, raffinose, erlose, saccharides such as α-glucosyltrehalose or monoglucosyltrehalose, α-maltosyltrehalose or diglucosyltrehalose, and α-maltotriosyltrehalose or triglucosyltrehalose as disclosed in Japanese Patent Kokai No.143,876/95 by the present applicant; a saccharide such as α-isomaltosyl-α-glucoside or monoglucosyltrehalose as disclosed in Japanese Patent Kokai No.217,784/96 by the same applicant; and a saccharide such as α-maltosyl-α-maltoside or diglucosyltrehalose as disclosed in Japanese Patent Application No.167,486/94 by the same applicant. Each solution was allowed to stand in a thermostatic place kept at 5, 10 or 15° C. for one week, followed by macroscopically observing the presence of trehalose crystal for evaluating the trehalose crystallization inhibitory effect by the saccharides.

[3] = Influence of the concentrations of trehalose and of mono-/diglucosyltrehalose on trehalose crystallization (Experiment 3); design: key to Formation of trehalose crystal: "+" means that it crystallized; "-" means that it did not
Protocol: The trehalose crystallization inhibitory effect was experimented by dissolving trehalose under heating conditions in water in an amount of 1.5, 2.0, 2.5, 2.8 or 3.3-times the water solubility at 10° C., dissolving in the solution other oligosaccharides having a trehalose structure within their molecules in an amount of 10, 30 or 60% to the trehalose, d.s.b, and allowing the resultant solution to stand at a relatively-low temperature.
Based on the results in Experiment 1, 1.5, 2.0, 2.5, 2.8 and 3.3-times the water solubility of trehalose in 100 parts by weight of water at 10° C. water corresponded to 83, 111, 138, 155 and 182 parts by weight of trehalose anhydride, d.s.b., respectively With this relationship, testing solutions with the composition as shown in Table 3 were prepared by dissolving under heating conditions in a respective glass beaker 100 parts by weight of water, trehalose in a prescribed part by weight, and either monoglucosyltrehalose, i.e., α-glucosyltrehalose or diglucosyltrehalose, i.e., α-maltosyltrehalose in a prescribed ratio, allowing the solution to stand in a thermostatic place kept at 5, 10 or 15° C. for checking the trehalose crystallization inhibitory effect.

SMILES: OC[C@H]1O[C@H](O[C@H]2O[C@H](CO)[C@@H](O)[C@H](O)[C@H]2O)[C@H](O)[C@@H](O)[C@@H]1O [Trehalose, α, α-trehalose]
- Water solubility (in words) ([1]; ambient temperature, summary of Table 1): relatively-low water solubility
- solubility thermodynamic ([1]; d.s.b., read-out: Amount of trehalose (g) dissolving in 100 g water): 496 mg/mL (≈ 1450 mM)
- solubility thermodynamic ([1]; read-out: Trehalose concentration (%)): 332 mg/mL (≈ 970 mM)

SMILES: OC[C@H]1O[C@H](O[C@H]2O[C@H](CO)[C@@H](O[C@H]3O[C@H](CO)[C@@H](O[C@H]4O[C@H](CO)[C@@H](O)[C@H](O)[C@H]4O)[C@H](O)[C@H]3O)[C@H](O)[C@H]2O)[C@H](O)[C@@H](O)[C@@H]1O [α-Maltosyltrehalose, α-maltosyltrehalose]
- Trehalose crystallization inhibitory effect (in words) [2]: specifically and effectively inhibited
- Amount of trehalose, times the water solubility, beyond which crystallization of trehalose was observed ([3]; coexisting diglucosyltrehalose): exceeds 2.8 times the water solubility
- Trehalose crystallization inhibitory effect (in words) ([3]; summary of Table 3, listed as diglucosyltrehalose): satisfactory trehalose crystallization inhibitory effect; also recorded: stronger effect
- Formation of trehalose crystal ([3]; water 100, trehalose 83, coexisting saccharide 8.3 parts by weight, 5° C. (1.7-times solubility)): -
- Formation of trehalose crystal ([3]; water 100, trehalose 83, coexisting saccharide 8.3 parts by weight, 10° C. (1.5-times solubility)): -
- Formation of trehalose crystal ([3]; water 100, trehalose 83, coexisting saccharide 8.3 parts by weight, 15° C. (1.3-times solubility)): -
- Formation of trehalose crystal ([3]; water 100, trehalose 83, coexisting saccharide 25 parts by weight, 5° C. (1.7-times solubility)): -
- Formation of trehalose crystal ([3]; water 100, trehalose 83, coexisting saccharide 25 parts by weight, 10° C. (1.5-times solubility)): -
- Formation of trehalose crystal ([3]; water 100, trehalose 83, coexisting saccharide 25 parts by weight, 15° C. (1.3-times solubility)): -
- Formation of trehalose crystal ([3]; water 100, trehalose 83, coexisting saccharide 50 parts by weight, 5° C. (1.7-times solubility)): -
- Formation of trehalose crystal ([3]; water 100, trehalose 83, coexisting saccharide 50 parts by weight, 10° C. (1.5-times solubility)): -
- Formation of trehalose crystal ([3]; water 100, trehalose 83, coexisting saccharide 50 parts by weight, 15° C. (1.3-times solubility)): -
- Formation of trehalose crystal ([3]; water 100, trehalose 111, coexisting saccharide 11 parts by weight, 5° C. (2.2-times solubility)): -
- Formation of trehalose crystal ([3]; water 100, trehalose 111, coexisting saccharide 11 parts by weight, 10° C. (2.0-times solubility)): -
- Formation of trehalose crystal ([3]; water 100, trehalose 111, coexisting saccharide 11 parts by weight, 15° C. (1.8-times solubility)): -
- Formation of trehalose crystal ([3]; water 100, trehalose 111, coexisting saccharide 33 parts by weight, 5° C. (2.2-times solubility)): -
- Formation of trehalose crystal ([3]; water 100, trehalose 111, coexisting saccharide 33 parts by weight, 10° C. (2.0-times solubility)): -
- Formation of trehalose crystal ([3]; water 100, trehalose 111, coexisting saccharide 33 parts by weight, 15° C. (1.8-times solubility)): -
- Formation of trehalose crystal ([3]; water 100, trehalose 111, coexisting saccharide 66 parts by weight, 5° C. (2.2-times solubility)): -
- Formation of trehalose crystal ([3]; water 100, trehalose 111, coexisting saccharide 66 parts by weight, 10° C. (2.0-times solubility)): -
- Formation of trehalose crystal ([3]; water 100, trehalose 111, coexisting saccharide 66 parts by weight, 15° C. (1.8-times solubility)): -
- Formation of trehalose crystal ([3]; water 100, trehalose 138, coexisting saccharide 14 parts by weight, 5° C. (2.8-times solubility)): +
- Formation of trehalose crystal ([3]; water 100, trehalose 138, coexisting saccharide 14 parts by weight, 10° C. (2.5-times solubility)): -
- Formation of trehalose crystal ([3]; water 100, trehalose 138, coexisting saccharide 14 parts by weight, 15° C. (2.2-times solubility)): -
- Formation of trehalose crystal ([3]; water 100, trehalose 138, coexisting saccharide 42 parts by weight, 5° C. (2.8-times solubility)): +
- Formation of trehalose crystal ([3]; water 100, trehalose 138, coexisting saccharide 42 parts by weight, 10° C. (2.5-times solubility)): -
- Formation of trehalose crystal ([3]; water 100, trehalose 138, coexisting saccharide 42 parts by weight, 15° C. (2.2-times solubility)): -
- Formation of trehalose crystal ([3]; water 100, trehalose 138, coexisting saccharide 83 parts by weight, 5° C. (2.8-times solubility)): -
- Formation of trehalose crystal ([3]; water 100, trehalose 138, coexisting saccharide 83 parts by weight, 10° C. (2.5-times solubility)): -
- Formation of trehalose crystal ([3]; water 100, trehalose 138, coexisting saccharide 83 parts by weight, 15° C. (2.2-times solubility)): -
- Formation of trehalose crystal ([3]; water 100, trehalose 155, coexisting saccharide 16 parts by weight, 5° C. (3.1-times solubility)): +
- Formation of trehalose crystal ([3]; water 100, trehalose 155, coexisting saccharide 16 parts by weight, 10° C. (2.8-times solubility)): +
- Formation of trehalose crystal ([3]; water 100, trehalose 155, coexisting saccharide 16 parts by weight, 15° C. (2.5-times solubility)): -
- Formation of trehalose crystal ([3]; water 100, trehalose 155, coexisting saccharide 46 parts by weight, 5° C. (3.1-times solubility)): +
- Formation of trehalose crystal ([3]; water 100, trehalose 155, coexisting saccharide 46 parts by weight, 10° C. (2.8-times solubility)): +
- Formation of trehalose crystal ([3]; water 100, trehalose 155, coexisting saccharide 46 parts by weight, 15° C. (2.5-times solubility)): -
- Formation of trehalose crystal ([3]; water 100, trehalose 155, coexisting saccharide 93 parts by weight, 5° C. (3.1-times solubility)): +
- Formation of trehalose crystal ([3]; water 100, trehalose 155, coexisting saccharide 93 parts by weight, 10° C. (2.8-times solubility)): -
- Formation of trehalose crystal ([3]; water 100, trehalose 155, coexisting saccharide 93 parts by weight, 15° C. (2.5-times solubility)): -
- Formation of trehalose crystal ([3]; water 100, trehalose 182, coexisting saccharide 18 parts by weight, 5° C. (3.7-times solubility)): +
- Formation of trehalose crystal ([3]; water 100, trehalose 182, coexisting saccharide 18 parts by weight, 10° C. (3.3-times solubility)): +
- Formation of trehalose crystal ([3]; water 100, trehalose 182, coexisting saccharide 18 parts by weight, 15° C. (3.0-times solubility)): +
- Formation of trehalose crystal ([3]; water 100, trehalose 182, coexisting saccharide 55 parts by weight, 5° C. (3.7-times solubility)): +
- Formation of trehalose crystal ([3]; water 100, trehalose 182, coexisting saccharide 55 parts by weight, 10° C. (3.3-times solubility)): +
- Formation of trehalose crystal ([3]; water 100, trehalose 182, coexisting saccharide 55 parts by weight, 15° C. (3.0-times solubility)): +
- Formation of trehalose crystal ([3]; water 100, trehalose 182, coexisting saccharide 110 parts by weight, 5° C. (3.7-times solubility)): +
- Formation of trehalose crystal ([3]; water 100, trehalose 182, coexisting saccharide 110 parts by weight, 10° C. (3.3-times solubility)): +
- Formation of trehalose crystal ([3]; water 100, trehalose 182, coexisting saccharide 110 parts by weight, 15° C. (3.0-times solubility)): +
